# From PMC11720353, “Clove Essential Oil as a Source of Antitumoral Compounds Capable of Crossing the Blood–Brain Barrier: A Focus on the Effects of β-Caryophyllene and Eugenol in a Glioblastoma Cell Line” (International Journal of Molecular Sciences, 2024)
# Assays:
# Assay type in all cases: cell-based, human
# U87 cells [1] = test: Cell cycle analysis (PI/RNase, flow cytometry); settings: BCA 125 µM alone or with EU 200 µM, 24 h
# Procedure: (§1) Analysis of the effect of BCA and/or EU on the cell cycle was assessed with flow cytometry using propidium iodide (PI)/RNase solution, according to the manufacturer’s protocol (Immunostep, Salamanca, Spain), as previously described. HMC3 and U87 cells (30 × 10^4 cells/well) were seeded in triplicate into 6-well plates and incubated for 24 h at 37 °C and 5% CO2. Thereafter, the cells were treated either with EU (200 µM) or BCA (125 µM) alone or in combination (EU 200 µM + BCA 125 µM). After 24 h, the cells were detached and fixed in 70% ethanol for 60 min at 4 °C, washed twice with PBS, and then stained with 500 µL of PI/RNase solution. The results were acquired using CellQuest software and expressed as the calculated percentage of the cell population in each cell cycle phase (G0/G1, S and G2/M) according to the PI intensity.
# HMC3 cells [2] = test: Cell cycle analysis (PI/RNase, flow cytometry); settings: EU 200 µM, BCA 125 µM, alone or in combination, 24 h
# Procedure: as §1
# U87 cells [3] = test: Clonogenic cell survival assay; settings: EU 200 µM, BCA 125 µM, alone or in combination, 14 days
# Procedure: An evaluation of the antiproliferative effect via clonogenic assay on the tumoral U87 cells was performed using an adapted protocol from the previously described procedure. Briefly, U87 cells (0.8 × 10^3 cells/well) were seeded into 6-well plates and incubated for 24 h. After the incubation, based on the results obtained from the cell viability assay and synergistic score, the cells were treated either with EO single compounds diluted in ethanol alone (EU 200 µM and BCA 125 µM) or in combination for 14 days with the media being changed every 2/3 days. The cells without treatment were considered the control condition. Following the incubation, the cells were washed with PBS, fixed with paraformaldehyde (PFA) and stained with 0.1% crystal violet solution. The number of colonies was counted by microscopy, and the surviving fraction (SF) was calculated as the mean colonies/number of cells seeded.
# U87 cells [4] = test: Inflammatory cytokines in conditioned media (Luminex/BioPlex); settings: EU 200 µM, BCA 125 µM, alone or in combination, 24 h
# Procedure: (§2) In order to determine the impact of BCA and/or EU on inflammatory cytokines levels, cytokine expression analyses (L-6, IL-4, IL-8 and TNF-α) were performed using a customized detection panel purchased from Bio-techne (Minneapolis, MN, USA). The cells were seeded, in triplicate, into 24-well culture plates (8 × 10^4 cells/well). After 24 h, the medium was replaced and the cells were treated either with the vehicle (ethanol) or with different concentrations of EO single compounds alone (EU: 2 µM, 20 µM, 200 µM; and BCA: 1.25 µM, 12.5 µM, 125 µM) or in combination (EU 2 µM + BCA 1.25 µM; EU 20 µM + BCA 12.5 µM; and EU 200 µM + BCA 125 µM). The final concentration of ethanol in the cell medium was kept lower than 0.1%. The ethanol 0.1%-treated cells were considered the control condition. After the 24 h treatment, supernatants were collected and centrifuged at 4,000× g for 10 min, and the samples were analyzed with the BioPlex 200 instrument (BioRad®, Hercules, CA, USA) following the manufacturer’s protocol.
# HMC3 cells [5] = test: as above; settings: EU 200 µM, BCA 125 µM, alone or in combination, 24 h
# Procedure: as §2
compound,measurement,setting,value
"C=C1CC/C=C(\C)CC[C@@H]2[C@@H]1CC2(C)C [BCA, β-Caryophyllene]",decrease in percentage of cells in the S phase,U87 cells [1],−49.4%
same,increase in percentage of cells in the G0/G1 phase,U87 cells [1],21.1%
same,effect on cell cycle,HMC3 cells [2],no effects
same,decrease of clonal growth / colony formation with respect to control,U87 cells [3],−63.8%
same,"IL-4 levels, change vs control",U87 cells [4],−29.3%
same,"IL-6 secretion, change vs control",U87 cells [4],None of the treatments modulated
same,"IL-8 secretion, change vs control",U87 cells [4],unaffected
same,"IL-4 levels, change vs control",HMC3 cells [5],−52.2%
same,"IL-6 secretion, change vs control",HMC3 cells [5],−55.5%
same,"IL-8 secretion, change vs control",HMC3 cells [5],−38.0%
same,"TNF-α secretion, change vs control",HMC3 cells [5],−49.7%
